What was measured:
[1] = test system: American cockroaches (Periplaneta americana); assay: Spray knock-down test with 0.1% (w/v) oil solution on American cockroaches (Test Example 1); assay type: in vivo; settings: adult Periplaneta americana, 1.5 ml of 0.1% (w/v) oil solution sprayed
Procedure: Zero point one (0.1) part of the compound of the present inventions (1) was dissolved in 10 parts of isopropyl alcohol and the solution was mixed with 89.9 parts of deodorized kerosene to prepare a 0.1% (w/v) oil solution.
Six adult American cockroaches (Periplaneta americana, 3 males and 3 females) were released in a test container (diameter 12.5 cm, 10 cm high, the bottom face is made of 16 mesh metallic wire), the inner face on which butter was applied, and the container was set at the bottom of a test chamber (bottom face: 46 cm×46 cm, height: 70 cm). Each 1.5 ml of the oil solution of the compound of the present invention (1) was sprayed using a spray gun at a pressure of 0.4 kg/cm^2 from 60 cm higher than the upper face of the container. Thirty seconds after the spraying, the container was pulled out from the chamber. After a prescribed time, the number of knocked-down cockroaches was counted and a knock-down ratio was determined (repeated twice). The knocked-down ratio was calculated by the following equation.
Knocked-down ratio (%) (Number of knocked-down cockroaches/Number of test cockroaches)×100

[2] = test system: German cockroaches (Blattella germanica); assay: Spray knock-down test with 0.1% (w/v) oil solution on German cockroaches (Test Example 2); assay type: in vivo; settings: adult Blattella germanica, 1.5 ml of 0.1% (w/v) oil solution sprayed
Procedure: Zero point one (0.1) part of the compound of the present inventions (1) and (2) was dissolved in 10 parts of isopropyl alcohol and the solution was mixed with 89.9 parts of deodorized kerosene to prepare a 0.1% (w/v) oil solution.
Ten adult German cockroaches (Blattella germanica, 5 males and 5 females) were released in a test container (diameter 8.75 cm, 7.5 cm high, the bottom face is made of 16 mesh metallic wire), the inner face on which butter was applied, and the container was set at the bottom of a test chamber (bottom face: 46 cm×46 cm, height: 70 cm).
Each 1.5 ml of the oil solution of the compound of the present invention (1) and (2) was sprayed using a spray gun at a pressure of 0.4 kg/cm^2 from 60 cm higher than the upper face of the container. Thirty seconds after the spraying, the container was pulled out from the chamber. Two minutes after spraying, the number of knocked-down […] was counted and a knock-down ratio was determined. A knocked-down ratio was calculated by the following equation.
Knocked-down ratio=(Number of knocked-down cockroaches/Number of test cockroaches)×100

Structure (SMILES)	Knock-down ratio (%) 5 minutes after spraying [1] [%]	Knock-down ratio (%) 2 minutes after spraying [2] [%]
C#CCC1=C(C)[C@@H](OC(=O)[C@@H]2[C@@H](/C=C(\C#N)SC)C2(C)C)CC1=O [compound of the present invention (1), (S)-2-methyl-3-(2-propynyl)cyclopent-2-en-4-on-1-yl=(1R)-trans-3-[(1E)-2-cyano-2-(methylthio)ethenyl]-2,2-dimethylcyclopropane carboxylate]	100	100
C=CCC1=C(C)C(OC(=O)[C@@H]2[C@@H](C=C(C#N)SC)C2(C)C)CC1=O (relative stereo) [compound of the present invention (2), 2-methyl-3-(2-propenyl)cyclopent-2-en-4-on-1-yl=(1R)-trans-3-[(1EZ)-2-cyano-2-(methylthio)ethenyl]-2,2-dimethylcyclopropanecarboxylate]		100

From patent publication US20120322869A1, “ESTER COMPOUND AND USE THEREOF” (SUMITOMO CHEMICAL COMPANY, LIMITED, priority 2010, published 2012)
